Data as given in patent publication US9273018B2, “Piperazine derivatives” (St. Mary's University, priority 2011, dated 2016).

Key:
Type in all cases: cell-based
HT29 colon cancer cells = test: Cytotoxicity of HT29 colon cancer cells (relative cell density); conditions: Homo sapiens, HT-29, relative cell density as percent of control, FIG. 3, read-out: LD50 (the source's name)
[1] = system: U87MG glioblastoma cancer cells; test: Cytotoxicity of glioblastoma cancer cells (relative cell density); conditions: Homo sapiens, U-87 MG, relative cell density as percent of control, FIG. 1, read-out: LD50 (the source's name)
Description: U87MG glioblastoma cancer cells were cultured according to established protocols (Martinkova et al., Cytotoxicity of and DNA adduct formation by ellipicine in human U87MG glioblastoma cancer cells. Neuro Endocrinol Lett 30 (Suppl 1):60-6, 2009). Temozolomide was added to the cell culture media at increasing doses and the relative cell density, as a percent of control cells not exposed to temozolomide, was calculated. Temozolomide is one of the primary treatments for glioblastoma type cancers and dacarbazine is an antineoplastic chemotherapy used in the treatment of various cells.
To test the cytotoxic effect of 1-[(E)-2-(4-nitrophenyl)diazen-1-yl]-4-phenylpiperazine, 4-[(E)-2-(4-phenylpiperazin-1-yl)diazen-1-yl]benzonitrile, methyl 4-[(E)-2-(4-phenylpiperazin-1-yl)diazen-1-yl]benzoate, methyl 4-[(E)-2-[4-(4-chlorophenyl)piperazin-1-yl)diazen-1-yl]benzoate, 1-[(E)-2-(4-bromophenyl)diazen-1-yl]-4-[(3-methylphenyl)methyl]piperazine, 4-[(E)-2-{4-[(3-methylphenyl)methyl]piperazin-1-yl}diazen-1-yl]benzonitrile serial dilutions of the compounds were made and added to the cell culture media containing the U87MG glioblastoma cancer cells. The relative cell density, as a percent of control cells not exposed to temozolomide, dacarbazine or the experimental compounds, was calculated.

A549 lung cancer cells = test: Cytotoxicity of A549 lung cancer cells (relative cell density); conditions: relative cell density as percent of control, FIG. 2
Description: A549 lung cancer cells were cultured according to established protocols (Lieber M. et al., Int. J. Cancer 17: 62-70, 1976). Temozolomide and dacarbazine were separately added to the cell culture media at increasing doses and the relative cell density, as a percent of control cells not exposed to temozolomide or dacarbazine, was calculated.
To test the cytotoxic effect of 1-[(E)-2-(4-nitrophenyl)diazen-1-yl]-4-phenylpiperazine, methyl 4-[(E)-2-(4-phenylpiperazin-1-yl)diazen-1-yl]benzoate, 1-{4[(E)-2-[4-(3,4-dichlorophenyl)piperazin-1-yl]phenyl}ethan-1-one, 1-{4-[(E)-2-[4-pyridin-2-yl)piperazin-1-yl]diazen-1-yl]phenyl}ethan-1-one, serial dilutions of the compounds were made and added to the cell culture media containing the A549 lung cancer cells. The relative cell density, as a percent of control cells not exposed to temozolomide, dacarbazine or the experimental compounds, was calculated.

| Compound | IC50 (HT29 colon cancer cells) [µM] | IC50 [1] [µM] | LD50 (A549 lung cancer cells) [µM] |
| --- | --- | --- | --- |
| COC(=O)c1ccc(/N=N/N2CCN(c3ccccn3)CC2)cc1 [Compound 42, methyl 4-[(E)-2-[4-(pyridin-2-yl)piperazin-1-yl]diazen-1-yl]benzoate] | 14.6 |  |  |
| N#Cc1ccc(/N=N/N2CCN(c3ccccc3)CC2)cc1 [Compound 2, 4-[(E)-2-(4-phenylpiperazin-1-yl)diazen-1-yl]benzonitrile] | 2.6 | 12.4 |  |
| CC(=O)c1ccc(/N=N/N2CCN(c3ccc(Cl)c(Cl)c3)CC2)cc1 [Compound 22] | 3.4 |  | 3.4 |
| Cn1nnc2c(C(N)=O)ncn2c1=O [Temozolomide, reference compound] |  | 25.5 | 60.4 |
| CN(C)/N=N/c1[nH]cnc1C(N)=O [dacarbazine, reference compound] | 25.2 | 25 | 25.7 |
| COC(=O)c1ccc(/N=N/N2CCN(c3ccccc3)CC2)cc1 [Compound 3, Methyl 4-[(E)-2-(4-phenylpiperazin-1-yl)diazen-1-yl]benzoate] | 3.9 | 16.2 | 25.5 |
| Cc1cccc(CN2CCN(/N=N/c3ccc(Br)cc3)CC2)c1 [Compound 70, 1-[(E)-2-(4-bromophenyl)diazen-1-yl]-4-[(3-methylphenyl)methyl]piperazine] | 17.6 | 12.2 |  |
| Cc1ccc(/N=N/N2CCN(c3ccccc3)CC2)cc1 [Compound 7, 1-[(E)-2-(4-methylphenyl)diazen-1-yl]-4-phenylpiperazine] | 9.6 |  |  |
| CC(=O)c1ccc(/N=N/N2CCN(c3ccccn3)CC2)cc1 [Compound 45] | 11.2 |  | 15.6 |
| O=[N+]([O-])c1ccc(/N=N/N2CCN(c3ccccc3)CC2)cc1 [Compound 1, 1-[(E)-2-(4-nitrophenyl)diazen-1-yl]-4-phenylpiperazine] | 2.5 | 4.36 | 5.27 |
| COC(=O)c1ccc(/N=N/N2CCN(c3ccc(Cl)cc3)CC2)cc1 [Compound 12, methyl 4-[(E)-2-[4-(4-chlorophenyl)piperazin-1-yl)diazen-1-yl]benzoate] |  | 22.2 |  |
| Cc1cccc(CN2CCN(/N=N/c3ccc(C#N)cc3)CC2)c1 [Compound 68, 4-[(E)-2-{4-[(3-methylphenyl)methyl]piperazin-1-yl}diazen-1-yl]benzonitrile] | 13.5 | 14 |  |
| N#Cc1ccccc1N1CCN(/N=N/c2ccc(Br)cc2)CC1 [Compound 49, 2-{4-[(E)-2-(4-bromophenyl)diazen-1-yl]piperazin-1-yl}benzonitrile] | 5.2 |  |  |
